Our source for the IC50 and melting point values is patent US7329401B2, “Cyclooxygenase-2 selective agents useful as imaging probes and related methods” (The Regents of the University of California, priority 2002, dated 2008).

In one data set the target is T1, cyclooxygenase-2 (Mus musculus, UniProt Q05769).
T1 sequence (Q05769 18-604): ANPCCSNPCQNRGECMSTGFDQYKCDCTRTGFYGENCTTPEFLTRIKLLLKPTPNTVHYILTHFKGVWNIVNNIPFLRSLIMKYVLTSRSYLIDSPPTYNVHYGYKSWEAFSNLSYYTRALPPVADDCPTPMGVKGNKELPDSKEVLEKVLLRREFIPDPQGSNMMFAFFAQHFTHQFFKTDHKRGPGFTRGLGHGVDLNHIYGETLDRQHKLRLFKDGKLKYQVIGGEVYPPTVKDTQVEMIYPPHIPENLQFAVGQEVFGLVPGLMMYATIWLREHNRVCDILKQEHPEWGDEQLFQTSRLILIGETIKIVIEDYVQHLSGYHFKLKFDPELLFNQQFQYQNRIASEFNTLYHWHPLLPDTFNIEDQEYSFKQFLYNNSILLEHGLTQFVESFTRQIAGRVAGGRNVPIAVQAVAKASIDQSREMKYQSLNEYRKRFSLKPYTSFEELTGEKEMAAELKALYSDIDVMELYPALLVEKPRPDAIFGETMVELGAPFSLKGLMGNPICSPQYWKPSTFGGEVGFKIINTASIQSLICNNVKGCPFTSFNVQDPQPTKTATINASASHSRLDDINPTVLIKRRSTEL
The data set can be described thus: Cell-based assay for cyclooxygenase-2 inhibition (PGE2 ELISA, LPS-treated RAW264.7 macrophages). The settings on record: lipopolysaccharide-treated murine RAW264.7 macrophages. Background: ELISA stands for enzyme-linked immunosorbent assay.

Experimental for cyclooxygenase-2: RAW 264.7 cells are a murine macrophage cell line that can be induced to express cyclooxygenase-2 by exposure to bacterial endotoxin/lipopolysaccharide (LPS). For this assay, RAW964.7 cells were plated at 90% confluence in 12-well cell culture plates. After attachment, cells were switched to 1 mL of endotoxin-free Dulbecco's Modified Eagle's Medium with high glucose and 0.5% calf serum overnight. Thirty minutes prior to induction of cyclooxygenase-2 expression, varying concentrations of the test compound (ranging from 20 nM to 0.3 nM) were added. NS-398 (a known cyclooxygenase-2 inhibitor) was used at 10 μM, as a control. Inhibitors or vehicle were added to the cultures by removing the existing culture medium and adding fresh medium containing inhibitor or vehicle. Cells were treated with LPS (final concentration, 10 ng per mL) to induce cyclooxygenase-2 expression. After eight hours, the media were collected from the cultures and frozen on dry ice. Cells were harvested and lysed. Protein determinations were performed to normalize PGE2 values to total protein in each well. PGE2 ELISA assays were performed with a commercial kit (Amersham).
The assay was carried out using lipopolysaccharide-treated murine RAW264.7 macrophages as described previously.

The term IC50 denotes the concentration that gives 50% inhibition. One may read the melting point as the temperature, or range, at which the solid turns liquid. As for `Cc1onc(-c2ccccc2)c1-c1ccc(S(N)(=O)=O)c(F)c1` [compound 4, 2-Fluoro-4-(5-methyl-3-phenylisoxazol-4-yl)benzenesulfonamide], the melting point is 192 to 195 °C (dec.). Also, the half-maximal inhibitory concentration (IC50) on cyclooxygenase-2 fell in the range of 1.25 to 2.5 nM.
